From patent US20080255078A1, “Triphenylethylene Compounds Useful as Selective Estrogen Receptor Modulators” (priority 2005, published 2008)

Structure (SMILES) | melting point
CCC(=C(c1ccc(O)cc1)c1ccc(O)cc1)c1cccc(/C=C/C(=O)O)c1 [Example 1, (2E)-3-{3-[1-Ethyl-2,2-bis(4-hydroxyphenyl)ethenyl]phenyl}-2-propenoic acid] | 280 to 281 °C
CCC(=C(c1ccc(O)cc1)c1ccc(O)cc1)c1cccc(-c2c(C)noc2C)c1 [Example 3, 4,4′-{2-[3-(3,5-Dimethyl-4-isoxazolyl)phenyl]-1-butene-1,1-diyl}diphenol] | 173 to 174 °C
